# Data as given in article PMC12111771, “Structural Characterization and Bioactivity Evaluation of Selenium-Modified Dihydromyricetin from Vine Tea” (Foods, 2025).
# Columns and labels:
# α-glucosidase (α-GLU) = assay: PNPG hydrolysis assay with commercial enzyme, absorbance at […] nm; format: biochemical
# α-amylase (α-AMY) = assay: starch hydrolysis DNS assay with commercial enzyme, absorbance at […] nm; format: biochemical
smiles,measurement,setting,value
"O=C1c2c(O)cc(O)cc2O[C@H](c2cc(O)c(O)c(O)c2)[C@H]1O [DHM, Dihydromyricetin]",IC50,α-glucosidase (α-GLU),96.12 µg/mL
same,IC50,α-amylase (α-AMY),4614 µg/mL
